In brackets after ≈: the same amount, converted by molar mass. Like-named read-outs stand apart in the source and are kept apart here.
Columns and labels:
[1] = In vivo PK in rats after single IV bolus injection; parameters: species or system Sprague-Dawley (SD) rats
Experimental: In vivo Pharmacokinetics. Pharmacokinetic studies were performed in male naïve Sprague-Dawley (SD) rats (three animals) following Institutional Animal Care and Use Committee guidelines. An IV bolus of a 5 μM solution of compound 19 was directly administered via tail-vein injection. Blood samples were collected over a 12-hour period post dose into Vacutainer tubes containing EDTA-K2. Plasma was isolated, and the concentration of tested compounds in plasma was determined with LC/MS/MS after protein precipitation with acetonitrile. Two-compartmental pharmacokinetic analysis was performed on plasma concentration data in order to calculate pharmacokinetic parameters.

MRSA USA400 (NRS123) = test: Multi-step resistance selection experiment; format: cell-based, Staphylococcus aureus; conditions: MRSA USA400, sub-lethal doses, 14 daily passages
Experimental: To determine if MRSA would be capable of forming resistance to the compounds quickly, a multi-step resistance selection experiment was conducted, as described previously. The broth microdilution assay was utilized to determine the MIC of the tested compounds and rifampicin exposed to MRSA USA400 (NRS123) for 14 passages over a period of two weeks. Resistance was classified as a greater than four-fold increase in the initial MIC, as reported elsewhere.

MRSA (USA300) = test: Time-kill assay; format: cell-based, Staphylococcus aureus
Experimental: Aliquots (100 μL) were taken from each sample after 2, 4, 6, 8, 10, 12, and 24 hours, serially diluted in phosphate-buffered saline, and transferred to Trypticase soy agar (TSA) (Becton, Dickinson and Company, Sparks, Md., USA) plates. Plates were incubated at 37° C. for at least 16 hours before counting viable CFU/mL to determine the time required to reduce the bacterial cell count by 3-log10.

S. aureus NRS107 = test: MIC/MBC S. aureus strains (Table 8); format: cell-based, Staphylococcus aureus; conditions: Staphylococcus aureus; Table 8; S. aureus NRS107
Experimental: (§1) A bacterial solution equivalent to 0.5 McFarland standard was prepared and diluted in cation-adjusted Mueller-Hinton broth (CAMHB) to achieve a bacterial concentration of about 5×10^5 CFU/mL and seeded in 96-well plates. Enterococcus faecium was diluted in brain heart infusion broth. Enterococcus faecalis, Streptococcus pneumonia and Listeria monocytogenes were diluted in tryptone soya broth (TSB).

MRSA (2658 RCMB) = test: MIC against MRSA (2658 RCMB), broth dilution; format: cell-based, Staphylococcus aureus; conditions: Staphylococcus aureus; Table 7; initial screening, MRSA (2658 RCMB); read-out: minimum inhibitory concentration (MIC)
Summary of the method: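 Broth dilution in cation-adjusted Mueller-Hinton broth with an inoculum of about 5×10^5 CFU/mL (from a 0.5 McFarland suspension), using triplicate serial dilutions. MIC was the lowest concentration with no visible growth by visual inspection, reported as the mean of triplicates.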

[2] = tested on: Cephalosporin-resistant Streptococcus pneumoniae ATCC 51916; test: MIC/MBC Gram-positive pathogens (Table 9); format: cell-based; conditions: ATCC51916
Experimental: as §1

[3] = tested on: Enterococcus faecalis ATCC 51299 (VRE); test: MIC/MBC Gram-positive pathogens (Table 9); format: cell-based
Experimental: as §1

[4] = tested on: Methicillin-resistant Streptococcus pneumoniae ATCC 700677; test: MIC/MBC Gram-positive pathogens (Table 9); format: cell-based; conditions: ATCC700677
Experimental: as §1

S. aureus ATCC 6538 = test: MIC/MBC S. aureus strains (Table 8); format: cell-based; conditions: Staphylococcus aureus, ATCC6538
Experimental: as §1

[5] = tested on: human colorectal (Caco-2) cell; test: In vitro cytotoxicity against Caco-2 cells (MTS); format: cell-based; conditions: at 32 μg/mL
Experimental: Tested compounds were assayed (at concentrations of 16, 32, and 64 μg/mL) against a human colorectal (Caco-2) cell to determine the potential toxic effect to mammalian cells in vitro. Briefly, cells were cultured in Dulbecco's Modified Eagle Medium (DMEM) supplemented with 20% fetal bovine serum (FBS), non-essential amino acids (1×), and penicillin-streptomycin at 37° C. with CO2 (5%). Control cells received DMSO alone at a concentration equal to that in drug-treated cell samples. The cells were incubated with the compounds (in triplicate) in a 96-well plate at 37° C. with CO2 (5%) for two hours. The assay reagent MTS 3-(4,5-dimethylthiazol-2-yl)-5-(3-carboxymethoxyphenyl)-2-(4-sulfophenyl)-2H-tetrazolium) (Promega, Madison, Wis., USA) was subsequently added and the plate was incubated for four hours. Absorbance readings (at OD490) were taken using a kinetic microplate reader (Molecular Devices, Sunnyvale, Calif., USA). The quantity of viable cells after treatment with each compound was expressed as a percentage of the viability of DMSO-treated control cells (average of triplicate wells±standard deviation). The toxicity data was analyzed via a two-way ANOVA, with post hoc Sidak's multiple comparisons test (P<0.05), utilizing GraphPad Prism 6.0 (GraphPad Software, La Jolla, Calif.).

VRS12 (VRSA) = test: MIC/MBC S. aureus strains (Table 8); format: cell-based; conditions: Staphylococcus aureus, VRSA
Experimental: (§2) The minimum inhibitory concentration (MIC) of tested compounds and control antibiotics were determined using the broth microdilution method in accordance with the recommendations contained in the Clinical and Laboratory Standards Institute guidelines, against methicillin-sensitive (ATCC 6538 and NRS107), methicillin-resistant (MRSA), and vancomycin-resistant (VRSA) Staphylococcus aureus, Staphylococcus epidermidis, Enterococcus faecalis, E. faecium, Listeria monocytogenes, and Streptococcus pneumoniae clinical isolates. A bacterial solution equivalent to 0.5 McFarland standard was prepared and diluted in cation-adjusted Mueller-Hinton broth (CAMHB) to achieve a bacterial concentration of about 5×10^5 CFU/mL and seeded in 96-well plates. Enterococcus faecium was diluted in brain heart infusion broth. Enterococcus faecalis, Streptococcus pneumonia and Listeria monocytogenes were diluted in tryptone soya broth (TSB). Compounds and control drugs were added in the first row of 96-well plates and serially diluted (to achieve a concentration gradient ranging from 128 to 1 μg/mL). Plates were then incubated aerobically at 37° C. for at least 18 hours. The minimum bactericidal concentration (MBC) of the active compounds was tested by plating 5 μL from wells with no growth onto Tryptic soy agar (TSA) plates.

VRS10 (VRSA) = test: MIC/MBC S. aureus strains (Table 8); format: cell-based; conditions: Staphylococcus aureus, VRSA
Experimental: as §2

NRS383 (MRSA USA200) = test: MIC/MBC clinical isolate panel (Table 3); format: cell-based, S. aureus; conditions: Staphylococcus aureus
Experimental: (§3) Bacteria were cultured in cation-adjusted Mueller Hinton broth in a 96-well plate. Compounds, using triplicate samples, were added to the plate and serially diluted. […] Plates were visually inspected and the MIC was categorized as the concentration at which no visible growth of bacteria was observed. The average of triplicate MIC determinations is reported.
as §1

NRS382 (MRSA USA100) = test: MIC/MBC clinical isolate panel (Table 3); format: cell-based, S. aureus; conditions: Staphylococcus aureus
Experimental: as §3, §1

NRS123 (MRSA USA400) = test: MIC/MBC clinical isolate panel (Table 3); format: cell-based, S. aureus; conditions: Staphylococcus aureus
Experimental: as §3, §1

NRS72 (MSSA) = test: MIC/MBC clinical isolate panel (Table 3); format: cell-based, S. aureus; conditions: Staphylococcus aureus
Experimental: as §3, §1

NRS384 (MRSA USA300) = test: MIC/MBC clinical isolate panel (Table 3); format: cell-based, S. aureus; conditions: Staphylococcus aureus
Experimental: as §3, §1

NRS119 (MRSA) = test: MIC/MBC clinical isolate panel (Table 3); format: cell-based, S. aureus; conditions: Staphylococcus aureus
Experimental: as §3, §1

VRE ATCC 700221 = test: MIC/MBC clinical isolate panel (Table 3); format: cell-based, Enterococcus faecium; conditions: Enterococcus
Experimental: as §3, with “MRSA clinical isolates, and vancomycin-resistant Staphylococcus aureus (VRSA) strain were obtained through the Network of Antimicrobial Resistance in Staphylococcus aureus (NARSA) program. In addition, vancomycin-resistant Enterococcus faecium (VRE) strain was obtained from the ATCC. Bacteria” for “Bacteria”
as §2

[6] = tested on: MRSA USA300 (NRS384) biofilm; test: MRSA biofilm eradication, microtiter dish biofilm formation assay; format: cell-based, Staphylococcus aureus
Experimental: The bacterial suspension was removed and compounds were added at concentrations ranging from 128 to 1 μg/mL in TSB. Compounds were incubated with the biofilm at 37° C. for 24 hours. In order to quantify the biofilm mass, the bacterial suspension was removed and wells were washed with phosphate-buffered saline to remove planktonic bacteria. An aliquot of 0.1% crystal violet was added to each well to stain biofilm mass. After 30 minutes, wells were washed with sterile water and dried. Wells were de-stained using 100% ethanol prior to quantifying biofilm mass using a spectrophotometer (OD595). Data are presented as percent eradication of MRSA USA300 biofilm for each test agent relative to the negative (DMSO) control wells. Data were analyzed using two-way ANOVA with post-hoc Sidak's test for multiple comparisons (P<0.05).

VRSA10 = test: MIC/MBC clinical isolate panel (Table 3); format: cell-based, S. aureus; conditions: Staphylococcus aureus
Experimental: as §3, with “MRSA clinical isolates, and vancomycin-resistant Staphylococcus aureus (VRSA) strain were obtained through the Network of Antimicrobial Resistance in Staphylococcus aureus (NARSA) program. In addition, vancomycin-resistant Enterococcus faecium (VRE) strain was obtained from the ATCC. Bacteria” for “Bacteria”
as §2

[7] = tested on: Enterococcus faecium ATCC 700221 (VRE); test: MIC/MBC Gram-positive pathogens (Table 9); format: cell-based; conditions: Enterococcus faecium
Experimental: as §2

[8] = tested on: methicillin-sensitive S. aureus (MSSA), MRSA and VRSA strains; test: MIC/MBC summary over the S. aureus strain panel; format: cell-based
Experimental: as §2

[9] = tested on: methicillin-sensitive S. aureus (MSSA), MRSA and VRSA strains; conditions: literature (Moran, N. Engl. J. Med. 2006); cited from earlier work

With `Cc1nc(-c2ccc(C(C)(C)C)cc2)sc1-c1ccnc(NCCN)n1` [Compound 54, N-(4-(2-(4-(tert-Butyl)phenyl)-4-methylthiazol-5-yl)pyrimidin-2-yl)ethane-1,2-diamine] the AUC [1] was 3980 ng·h/mL, the “CL (clearance)” value [1] was 1.26 L/h and the “Vdss (volume of distribution at the steady state)” value [1] was 3.39 L. For the same molecule, the “Vβ (volume of distribution in 2nd compartment, peripheral tissues)” value [1] was 16.36 L, the “t1/2 (half-life)” value [1] was 9.03 h and the “increase in MIC by/after the ninth passage” value (MRSA USA400 (NRS123)) was “one-fold”. The “bactericidal / bacteriostatic behaviour in time-kill assay, in words” value (MRSA (USA300); MRSA, 3.0×MIC) was “rapid bactericidal activity”, the “time to completely eradicate the MRSA inoculum” value (MRSA (USA300); t-butyl series, 3.0×MIC) was “within two to four hours” and the MIC (S. aureus NRS107) was 4 µg/mL (≈ 10.9 µM). For the same molecule, the MIC (MRSA (2658 RCMB)) was 1.17 µg/mL (≈ 3.18 µM), the MBC [2] was 16 µg/mL (≈ 43.5 µM) and the MIC ([3]; Table 9, Enterococcus faecalis ATCC 51299 (VRE)) was 16 µg/mL (≈ 43.5 µM). It also gave an MBC ([3]; Table 9, Enterococcus faecalis ATCC 51299 (VRE), read-out: MBC) of 16 µg/mL (≈ 43.5 µM), an MBC [4] of 16 µg/mL (≈ 43.5 µM) and an MIC [4] of 2 µg/mL (≈ 5.44 µM). For the same molecule, the MIC (S. aureus ATCC 6538) was 4 µg/mL (≈ 10.9 µM) and the “tolerability to human colorectal cells, in words” value [5] was “highly tolerable”.
With `CN[C@H](CC(C)C)C(=O)N[C@H]1C(=O)N[C@@H](CC(N)=O)C(=O)N[C@H]2C(=O)N[C@H]3C(=O)N[C@H](C(=O)N[C@H](C(=O)O)c4cc(O)cc(O)c4-c4cc3ccc4O)[C@H](O)c3ccc(c(Cl)c3)Oc3cc2cc(c3O[C@@H]2O[C@H](CO)[C@@H](O)[C@H](O)[C@H]2O[C@H]2C[C@](C)(N)[C@H](O)[C@H](C)O2)Oc2ccc(cc2Cl)[C@H]1O` [Vancomycin, vancomycin, reference compound] the MBC (VRS12 (VRSA)) was over 64 µg/mL, the MIC (VRS12 (VRSA)) was over 64 µg/mL and the MBC (VRS10 (VRSA)) was over 64 µg/mL. For the same molecule, the MIC (VRS10 (VRSA)) was over 64 µg/mL, the MIC (NRS383 (MRSA USA200)) was 1 µg/mL (≈ 0.69 µM) and the MIC (NRS382 (MRSA USA100)) was 1 µg/mL (≈ 0.69 µM). For the same molecule, the MIC (NRS123 (MRSA USA400)) was 1 µg/mL (≈ 0.69 µM), the MIC (NRS72 (MSSA)) was 2 µg/mL (≈ 1.38 µM) and the MIC (NRS384 (MRSA USA300)) was 1 µg/mL (≈ 0.69 µM). The MIC (NRS119 (MRSA)) was 1 µg/mL (≈ 0.69 µM), the MBC (VRE ATCC 700221) was over 64 µg/mL and the MIC (VRE ATCC 700221) was over 64 µg/mL. For the same molecule, the “MRSA biofilm mass disrupted” value ([6]; at 1×MIC) was 3%, the “reduction of MRSA biofilm mass” value ([6]; at 32×MIC) was 34% and the “time to three-log10 reduction in the initial inoculum of MRSA” value (MRSA (USA300); 3.0×MIC) was 24 hours. The “time required to reduce the MRSA inoculum to zero colony forming units” value (MRSA (USA300); MRSA US300, 3.0×MIC) was 24 h, the MBC (VRSA10) was over 64 µg/mL and the MIC (VRSA10) was over 64 µg/mL. The MBC [7] was over 64 µg/mL, the MIC [7] was over 64 µg/mL and the MBC ([3]; Enterococcus faecalis) was 64 µg/mL (≈ 44.2 µM). For the same molecule, the “MIC range against MRSA” value [8] was 1 to 2 µg/mL.
For `CCO/N=C(\C(=O)N[C@@H]1C(=O)N2C(C(=O)[O-])=C(Sc3nc(-c4cc[n+](C)cc4)cs3)CS[C@H]12)c1nsc(N)n1` [cefatroline], the “MIC range against MRSA and VRSA, reported” value [9] is given as 0.5 to 4 µg/mL.
